Source: US11655225B2, “Antimycobacterial heterocyclic amides” (Crestone, Inc., priority 2018, dated 2023)
Values after ≈ are worked out from the molar mass of the structure shown.

test system: M. abscessus; test: MIC determination, CLSI M24-A; format: cell-based; conditions: Mycobacteroides abscessus, CLSI M24-A

Q: `Cc1cc(C)c2oc(NC(=O)C34CC5CC(C)(CC(C)(C5)C3)C4)nc2c1` [Example 161, N-(5,7-dimethyl-1,3-benzoxazol-2-yl)-3,5-dimethyladamantane-1-carboxamide] was tested. Which MIC did it give?
A: Its MIC is 2 to 32 µg/mL (≈ 5.67 to 90.8 µM).

Q: For `CC1CC(C(=O)Nc2nc3cc(Cl)c(Cl)cc3[nH]2)CC(C)(C)C1` (stereo not shown) [Example 151, N-(5,6-dichloro-1H-1,3-benzodiazol-2-yl)-3,3,5-trimethylcyclohexane-1-carboxamide], which MIC is on record?
A: Its MIC is 2 to 32 µg/mL (≈ 5.65 to 90.3 µM).

Q: For `CC1CC(C(=O)Nc2nc3c(F)cc(F)cc3o2)CC(C)(C)C1` (stereo not shown) [Example 189, N-(4,6-difluoro-1,3-benzoxazol-2-yl)-3,3,5-trimethylcyclohexane-1-carboxamide], which MIC is on record?
A: The MIC was 2 to 32 µg/mL (≈ 6.2 to 99.3 µM).

Q: For `Cc1cccc2sc(NC(=O)C3CCCC(C)C3)nc12` (stereo not shown) [Example 180, 3-methyl-N-(4-methyl-1,3-benzothiazol-2-yl)cyclohexane-1-carboxamide], which MIC is on record?
A: The MIC was 2 to 32 µg/mL (≈ 6.93 to 111 µM).

Q: With `CC1(C(=O)Nc2nc3ccc(Br)cc3s2)CCCCC1` [Example 134, N-(6-bromo-1,3-benzothiazol-2-yl)-1-methylcyclohexane-1-carboxamide] as the compound, how does the MIC read?
A: The MIC was 2 to 32 µg/mL (≈ 5.66 to 90.6 µM).

Q: `CC12CC3CC(C)(C1)CC(C(=O)Nc1nc4c(F)cccc4s1)(C3)C2` [Example 122, N-(4-fluoro-1,3-benzothiazol-2-yl)-3,5-dimethyladamantane-1-carboxamide] was tested. Which MIC did it give?
A: The MIC was 2 to 32 µg/mL (≈ 5.58 to 89.3 µM).

Q: Which MIC does the source give for `CC1CCCC(C(=O)Nc2nc3c(F)cc(F)cc3s2)C1` (stereo not shown) [Example 169, N-(4,6-difluoro-1,3-benzothiazol-2-yl)-3-methylcyclohexane-1-carboxamide] here?
A: The MIC was 2 to 32 µg/mL (≈ 6.44 to 103 µM).

Q: How did the MIC turn out when `CC1(C(=O)Nc2nc3ccc(OC(F)(F)F)cc3s2)CC2CCC1O2` (stereo not shown) [Example 185, 2-methyl-N-[6-(trifluoromethoxy)-1,3-benzothiazol-2-yl]-7-oxabicyclo[2.2.1]heptane-2-carboxamide] was run?
A: Its MIC is 2 to 32 µg/mL (≈ 5.37 to 85.9 µM).

Q: For `CC12CC3CC(C)(C1)CC(C(=O)Nc1nc4ccccc4[nH]1)(C3)C2` [Example 146, N-(1H-1,3-benzodiazol-2-yl)-3,5-dimethyladamantane-1-carboxamide], which MIC is on record?
A: Its MIC is 2 to 32 µg/mL (≈ 6.18 to 98.9 µM).

Q: How did the MIC turn out when `COc1ccc2nc(NC(=O)C34CC5CC(C)(CC(C)(C5)C3)C4)sc2c1` [Example 124, N-(6-methoxy-1,3-benzothiazol-2-yl)-3,5-dimethyladamantane-1-carboxamide] was run?
A: The MIC was 2 to 32 µg/mL (≈ 5.4 to 86.4 µM).

Q: `CC1CC(C(=O)Nc2nc3cc(Cl)ccc3o2)CC(C)(C)C1` (stereo not shown) [Example 114, N-(5-chloro-1,3-benzoxazol-2-yl)-3,3,5-trimethylcyclohexane-1-carboxamide] was tested. Which MIC did it give?
A: Its MIC is 2 to 32 µg/mL (≈ 6.23 to 99.7 µM).

Q: Which MIC does the source give for `CC1(C(=O)Nc2nc3ccc(OC(F)(F)F)cc3s2)CC2CCC1C2` (stereo not shown) [Example 104, 2-methyl-N-[6-(trifluoromethoxy)-1,3-benzothiazol-2-yl]bicyclo[2.2.1]heptane-2-carboxamide] here?
A: The MIC was 2 to 32 µg/mL (≈ 5.4 to 86.4 µM).

Q: Which MIC does the source give for `COc1ccc2nc(NC(=O)C3CCCC(C)C3)sc2c1` (stereo not shown) [Example 181, N-(6-methoxy-1,3-benzothiazol-2-yl)-3-methylcyclohexane-1-carboxamide] here?
A: The MIC was 2 to 32 µg/mL (≈ 6.57 to 105 µM).

Q: How did the MIC turn out when `CC1(C(=O)Nc2nc3ccc(C(F)(F)F)cc3s2)CCCC1` [Example 128, 1-methyl-N-[6-(trifluoromethyl)-1,3-benzothiazol-2-yl]cyclopentane-1-carboxamide] was run?
A: The MIC was 2 to 32 µg/mL (≈ 6.09 to 97.5 µM).

Q: How did the MIC turn out when `CC1CCCC(C(=O)Nc2nc3ccc(F)cc3s2)C1` (stereo not shown) [Example 170, N-(6-fluoro-1,3-benzothiazol-2-yl)-3-methylcyclohexane-1-carboxamide] was run?
A: Its MIC is 2 to 32 µg/mL (≈ 6.84 to 109 µM).

Q: `CC1CC(C(=O)Nc2nc3cccc(O)c3s2)CC(C)(C)C1` (stereo not shown) [Example 174, N-(7-hydroxy-1,3-benzothiazol-2-yl)-3,3,5-trimethylcyclohexane-1-carboxamide] was tested. Which MIC did it give?
A: The MIC was 2 to 32 µg/mL (≈ 6.28 to 100 µM).

Q: Which MIC does the source give for `O=C(Nc1nc2c(F)c(F)c(F)cc2s1)C1CCCCCCC1` [Example 116, N-(4,5,6-trifluoro-1,3-benzothiazol-2-yl)cyclooctanecarboxamide] here?
A: The MIC was 2 to 32 µg/mL (≈ 5.84 to 93.5 µM).

Q: `COc1ccc2nc(NC(=O)C34CC5CC(C)(CC(C)(C5)C3)C4)oc2c1` [Example 145, N-(6-methoxy-1,3-benzoxazol-2-yl)-3,5-dimethyladamantane-1-carboxamide] was tested. Which MIC did it give?
A: Its MIC is 2 to 32 µg/mL (≈ 5.64 to 90.3 µM).

Q: With `CC1CCC(C(=O)Nc2nc3ccc(C(F)(F)F)cc3s2)C1` (stereo not shown) [Example 152, 3-methyl-N-[6-(trifluoromethyl)-1,3-benzothiazol-2-yl]cyclopentane-1-carboxamide] as the compound, how does the MIC read?
A: Its MIC is 2 to 32 µg/mL (≈ 6.09 to 97.5 µM).

Q: Which MIC does the source give for `CC1CC(C(=O)Nc2nc3cc(Cl)c(Cl)cc3o2)CC(C)(C)C1` (stereo not shown) [Example 113, N-(5,6-dichloro-1,3-benzoxazol-2-yl)-3,3,5-trimethylcyclohexane-1-carboxamide] here?
A: The MIC was 2 to 32 µg/mL (≈ 5.63 to 90.1 µM).

Q: `O=C(Nc1nc2ccc(OC(F)F)cc2s1)C1CCCCC1` [Example 156, N-[6-(difluoromethoxy)-1,3-benzothiazol-2-yl]cyclohexanecarboxamide] was tested. Which MIC did it give?
A: The MIC was 2 to 32 µg/mL (≈ 6.13 to 98 µM).

Q: `CC1CC(C(=O)Nc2nc3ccccc3s2)CC(C)(C)C1` (stereo not shown) [Example 125, N-(1,3-benzothiazol-2-yl)-3,3,5-trimethylcyclohexane-1-carboxamide] was tested. Which MIC did it give?
A: The MIC was 2 to 32 µg/mL (≈ 6.61 to 106 µM).

Q: With `CC1CC(C(=O)Nc2nc3ccc(F)cc3[nH]2)CC(C)(C)C1` (stereo not shown) [Example 178, N-(6-fluoro-1H-1,3-benzodiazol-2-yl)-3,3,5-trimethylcyclohexane-1-carboxamide] as the compound, how does the MIC read?
A: Its MIC is 2 to 32 µg/mL (≈ 6.59 to 105 µM).

Q: Which MIC does the source give for `CC12CC3CC(C)(C1)CC(C(=O)Nc1nc4cc(Cl)c(Cl)cc4[nH]1)(C3)C2` [Example 164, N-(5,6-dichloro-1H-1,3-benzodiazol-2-yl)-3,5-dimethyladamantane-1-carboxamide] here?
A: Its MIC is 2 to 32 µg/mL (≈ 5.1 to 81.6 µM).

Q: For `CC12CC3CC(C)(C1)CC(C(=O)Nc1nc4ccc(Cl)cc4o1)(C3)C2` [Example 117, N-(6-chloro-1,3-benzoxazol-2-yl)-3,5-dimethyladamantane-1-carboxamide], which MIC is on record?
A: The MIC was 2 to 32 µg/mL (≈ 5.57 to 89.2 µM).

Q: `CC1(C(=O)Nc2nc3ccc(OC(F)(F)F)cc3s2)CC2CC2C1` (stereo not shown) [Example 137, 3-methyl-N-[6-(trifluoromethoxy)-1,3-benzothiazol-2-yl]bicyclo[3.1.0]hexane-3-carboxamide] was tested. Which MIC did it give?
A: The MIC was 2 to 32 µg/mL (≈ 5.61 to 89.8 µM).

Q: Which MIC does the source give for `CCOc1ccc2nc(NC(=O)C3CC4CCCC(C4)C3)sc2c1` (stereo not shown) [Example 138, N-(6-ethoxy-1,3-benzothiazol-2-yl)bicyclo[3.3.1]nonane-3-carboxamide] here?
A: The MIC was 2 to 32 µg/mL (≈ 5.81 to 92.9 µM).

Q: How did the MIC turn out when `O=C(Nc1cc2ccccc2s1)C1CCCCCC1` [Example 160, N-(1-benzothiophen-2-yl)cycloheptanecarboxamide] was run?
A: The MIC was 2 to 32 µg/mL (≈ 7.32 to 117 µM).

Q: `CC1CC(C(=O)Nc2nc3cc(F)c(F)cc3o2)CC(C)(C)C1` (stereo not shown) [Example 175, N-(5,6-difluoro-1,3-benzoxazol-2-yl)-3,3,5-trimethylcyclohexane-1-carboxamide] was tested. Which MIC did it give?
A: The MIC was 2 to 32 µg/mL (≈ 6.2 to 99.3 µM).

Q: `CC1CCCC(C(=O)Nc2nc3ccc(Cl)cc3s2)C1` (stereo not shown) [Example 168, N-(6-chloro-1,3-benzothiazol-2-yl)-3-methylcyclohexane-1-carboxamide] was tested. Which MIC did it give?
A: The MIC was 2 to 32 µg/mL (≈ 6.48 to 104 µM).

Q: Which MIC does the source give for `O=C(Nc1nc2ccccc2o1)C1CCCCCCC1` [Example 187, N-(1,3-benzoxazol-2-yl)cyclooctanecarboxamide] here?
A: Its MIC is 2 to 32 µg/mL (≈ 7.34 to 117 µM).

Q: With `COC1CCCC(C(=O)Nc2nc3ccc(Cl)cc3s2)C1` (stereo not shown) [Example 191, N-(6-chloro-1,3-benzothiazol-2-yl)-3-methoxycyclohexane-1-carboxamide] as the compound, how does the MIC read?
A: The MIC was 2 to 32 µg/mL (≈ 6.16 to 98.5 µM).

Q: For `O=C(Nc1nc2ccc(C(F)(F)F)cc2s1)C1CCCC(C(F)(F)F)C1` (stereo not shown) [Example 126, 3-(trifluoromethyl)-N-[6-(trifluoromethyl)-1,3-benzothiazol-2-yl]cyclohexane-1-carboxamide], which MIC is on record?
A: Its MIC is 2 to 32 µg/mL (≈ 5.05 to 80.7 µM).

Q: With `CC1(C(=O)Nc2nc3cc(F)cc(F)c3s2)CCCCC1` [Example 133, N-(5,7-difluoro-1,3-benzothiazol-2-yl)-1-methylcyclohexane-1-carboxamide] as the compound, how does the MIC read?
A: Its MIC is 2 to 32 µg/mL (≈ 6.44 to 103 µM).
